The target of experiment [1] is T1, AmGH29C (Akkermansia muciniphila, UniProt B2UNB9).
T1 construct: gene Amuc_0392; mature peptide lacking the signal peptide
T1 sequence (B2UNB9 41-709): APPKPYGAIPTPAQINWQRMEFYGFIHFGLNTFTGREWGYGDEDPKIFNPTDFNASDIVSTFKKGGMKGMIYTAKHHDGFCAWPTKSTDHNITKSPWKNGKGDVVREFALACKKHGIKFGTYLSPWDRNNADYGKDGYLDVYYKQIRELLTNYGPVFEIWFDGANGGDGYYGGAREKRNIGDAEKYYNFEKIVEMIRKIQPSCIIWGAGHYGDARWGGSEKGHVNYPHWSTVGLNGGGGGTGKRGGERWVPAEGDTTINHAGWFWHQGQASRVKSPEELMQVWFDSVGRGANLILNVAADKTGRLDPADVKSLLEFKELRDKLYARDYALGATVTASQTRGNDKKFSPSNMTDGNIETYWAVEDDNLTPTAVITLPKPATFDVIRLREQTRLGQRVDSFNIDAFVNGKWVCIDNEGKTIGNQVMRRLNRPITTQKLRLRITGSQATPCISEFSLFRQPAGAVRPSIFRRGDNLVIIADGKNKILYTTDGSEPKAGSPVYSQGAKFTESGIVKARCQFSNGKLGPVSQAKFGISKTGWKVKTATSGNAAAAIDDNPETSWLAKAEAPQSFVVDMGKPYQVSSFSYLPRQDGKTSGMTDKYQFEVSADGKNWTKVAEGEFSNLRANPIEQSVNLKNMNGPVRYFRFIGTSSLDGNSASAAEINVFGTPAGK
The experiment is described as follows: inhibition of pNPFuc hydrolysis, A405. The class given is biochemical.

Experiment [2] concerns the target T2, AmGH29A (Akkermansia muciniphila, UniProt B2UL68).
T2 construct: gene Amuc_0010; mature peptide lacking the signal peptide
T2 sequence (B2UL68 20-538): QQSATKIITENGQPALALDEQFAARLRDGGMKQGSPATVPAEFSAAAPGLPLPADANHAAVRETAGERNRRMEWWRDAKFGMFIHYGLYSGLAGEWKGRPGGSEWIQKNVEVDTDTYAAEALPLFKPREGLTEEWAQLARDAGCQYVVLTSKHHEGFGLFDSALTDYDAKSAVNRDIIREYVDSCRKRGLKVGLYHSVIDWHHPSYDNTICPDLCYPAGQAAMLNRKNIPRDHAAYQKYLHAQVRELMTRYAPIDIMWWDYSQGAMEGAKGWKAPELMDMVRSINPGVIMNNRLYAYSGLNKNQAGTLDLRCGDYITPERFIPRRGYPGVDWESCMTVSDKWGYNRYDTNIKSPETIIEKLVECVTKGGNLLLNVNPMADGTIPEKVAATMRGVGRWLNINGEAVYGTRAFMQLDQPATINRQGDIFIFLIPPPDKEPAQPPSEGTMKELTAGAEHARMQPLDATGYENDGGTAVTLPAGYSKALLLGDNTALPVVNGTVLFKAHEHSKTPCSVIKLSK
In words: inhibition of pNPFuc hydrolysis, A405. The format is biochemical.

What is called IC50 is the concentration that gives 50% inhibition. A lower IC50 goes with greater potency in that assay.

Each structure is given as a SMILES string.

For `C[C@@H]1NC[C@@H](O)[C@H](O)[C@@H]1O` [DFJ, 1-Deoxyfuconojirimycin], the IC50 in experiment [1] and in experiment [2] was less than 54 µM each time.

These data come from paper PMC10067855, “Sialidases and fucosidases of Akkermansia muciniphila are crucial for growth on mucin and nutrient sharing with mucus-associated gut bacteria” (Nature Communications, 2023).
